The assay has as its system C57BL/6 responder splenocytes with irradiated BALB/c stimulatory cells. Description: Allo-MLR lymphocyte proliferation assay (3H-thymidine) with AMPs. The assay is classed as cell-based, mouse. Conditions: 20 μM indomethacin alone. Here is the method: FIG. 2. […] (A) Naive C57BL/6 splenocytes (as responders cells) were cultured 1:1 with irradiated (3 Gy) naïve BALB/c stimulatory cells. […] Cell proliferation was analyzed by 3H-thymidine incorporation during the last 18 h of a 5 day culture. Results are expressed as the mean percent alloproliferation inhibition of quadruplicate cultures. Data are representative of two independent experiments. (B) Cytokine analysis of 48 h culture supernatants obtained from mixed lymphocyte reaction assays. Data are presented as means±SD (n=3; P<0.05). (C) Representative flow cytometric analysis of splenic Tregs following 5 days of alto-MLR culture in the absence and presence of AMP co-culture. […] Quadrants are set according to isotype controls. Results shown are representative of three separate experiments. FIG. 3. […] Results are expressed as the mean value±SD. […] Bars indicate mean fold increase±SD mRNA expression level of the indicated gene relative the housekeeping gene GAPDH and normalized to untreated AMP cutlures. (D) Supernatants from allo-MLR/AMP co-cultures inhibit MLR lymphocyte proliferation. […] Cell proliferation was analyzed by ^3H-thymidine incorporation during the last 18 h of a 5 day culture. Results are expressed as the mean percent alloproliferation inhibition of quadruplicate cultures. […]

One compound from patent US9457052B2, “Allograft tolerance induction” (The United States of America as Represented by the …, priority 2013, dated 2016) can be followed below.

Turning to `COc1ccc2c(c1)c(CC(=O)O)c(C)n2C(=O)c1ccc(Cl)cc1` [indomethacin], the “allo T-cell proliferation” value is on record as “significantly inhibit”.
